Source: patent US9359311B2, “Substituted aromatic oligomers” (NEUROSCIOS GMBH, priority 2011, dated 2016)

How the values were obtained:
biotinylated Aβ1-42 = target: T1, biotinylated Aβ1-42 (Homo sapiens, UniProt P05067); assay: Inhibition of Abeta oligomerisation (biotinylated Aβ1-42, neutravidin plate, streptavidin-HRP); type: biochemical; conditions: inhibition of Aβ1-42 aggregation, approximately 12 nM Aβ1-42, PBS pH 7.4, 2% DMSO, 30 min RT
T1 construct: To assure monomerisation of biotinylated Aβ1-42 (Anaspec #23523-0.5) the peptide was thoroughly monomerised; purchased Anaspec 23523-0.5

primary chicken neurons = assay: Inhibition of Abeta 1-42 toxicity on primary chicken neurons (MTT); type: cell-based; set-up: key: No: no effect; +: minor positive effect on cell viability in the presence of aggregated Aβ 1-42; ++: medium positive effect on cell viability in the presence of aggregated Aβ 1-42; +++: strong positive effect on cell viability in the presence of aggregated Aβ 1-42
Description: One-day-old fertilized eggs are stored under appropriate conditions until start of breeding. On embryonic day 0 eggs are transferred to the breeding incubator and under turning, kept at 37.8° C. and 55% humidity until embryonic day eight. Neurons are prepared as follows: In short, embryos are transferred to a plastic dish, and decapitated. Both brain hemispheres are removed, collected and any loose tissue removed. Hemispheres are mechanically dissociated and 4.8×10^4 cells per well (96-well plates) are seeded in a volume of 160 μl.
Aβ1-42 (MW 4514.1) was obtained from American Peptide Company as a lyophilized powder. A stock solution of 340 μM Aβ1-42 was prepared in 50 mM Tris-Buffer, 150 mM NaCl, pH7.6 according to the manufacturer's instructions. After sonication, the stock solution is diluted 1:1 with the test compounds to obtain a concentration of 170, 17 and 1.7 μM. After aggregation at 4° C. for 48 h, the solutions are sonicated again prior to application to the cells. The final concentration of Aβ1-42 applied to the primary chicken neurons is 10 μM.
Aβ1-42 aggregated together with compound for 48 hrs was applied to chicken neurons at DIV4 (days in vitro) and analyzed at DIV10 (144 hrs) and all others were applied to chicken neurons at DIV6 and analysed at DIV10 (96 hrs).
Viability of cultures is determined by the MTT assay. The MTT assay allows for the measurement of the mitochondrial dehydrogenase activity which reduces yellow MTT to dark blue formazan crystals. Since this reaction is catalyzed in living cells only this assay is used for the determination of cell viability. MTT solution is added to each well in a final concentration of 0.5 mg/ml. After 2 hours the MTT containing medium is aspired. Cells are lysed in 3% SDS and the formazan crystals are dissolved in isopropanol/HCl. Optical density is measured with a plate-reader at wavelength 570 nm. Cell survival rate is expressed as a percentage of optical density (OD) relative to control cells not treated with Aβ or compound.

prion = conditions: Ref: JBC doi: 10.1074/jbc.M112.355958; cited from earlier work
[1] = Conc. 0.1 μM, 10 μM Aβ1-42 aggregated together with compound for 48 h
[2] = Conc. 1 μM, 10 μM Aβ1-42 aggregated together with compound for 48 h
[3] = Conc. 10 μM, 10 μM Aβ1-42 aggregated together with compound for 48 h

T1 sequence (P05067 672-713 limits assumed): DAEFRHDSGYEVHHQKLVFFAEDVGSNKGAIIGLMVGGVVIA

Structure (SMILES) | IC50 (biotinylated Aβ1-42) | Rescue of Abeta toxicity (MTT) (primary chicken neurons; [1]) | Rescue of Abeta toxicity (MTT) (primary chicken neurons; [2]) | Rescue of Abeta toxicity (MTT) (primary chicken neurons; [3]) | pIC50 (biotinylated Aβ1-42) | anti-prion potential (prion) | Rescue of Abeta toxicity (MTT) (primary chicken neurons; Conc. 5 μM, 10 μM Aβ1-42)
O=C(O)Cc1cc(-c2ccc(-c3cc(CC(=O)O)c(-c4ccc(C(=O)O)s4)s3)s2)sc1-c1ccc(C(=O)O)s1 [Example 6, 5-[3-(Carboxymethyl)-5-{5-[4-(carboxymethyl)-5-(5-carboxythiophen-2-yl)thiophen-2-yl]thiophen-2-yl}thiophen-2-yl]thiophene-2-carboxylic acid] | 7940 nM | ++ | + | +++ | – | – | –
O=C(O)Cc1ccccc1-c1ccc(-c2cc(CC(=O)O)c(-c3ccc(-c4sc(-c5ccc(-c6ccccc6CC(=O)O)s5)cc4CC(=O)O)s3)s2)s1 [Example 56, 2-(2-{5-[3-(Carboxymethyl)-5-{5-[2-(carboxymethyl)phenyl]thiophen-2-yl}thiophen-2-yl]thiophen-2-yl}-5-{5-[2-(carboxymethyl)phenyl]thiophen-2-yl}thiophen-3-yl)acetic acid] | 3160 nM | + | +++ | +++ | – | – | –
O=C(O)Cc1ccsc1-c1ccc(-c2sc(-c3cc(CC(=O)O)c(-c4ccc(-c5sccc5CC(=O)O)s4)s3)cc2CC(=O)O)s1 [Example 17, 2-(2-{5-[3-(Carboxymethyl)-5-[4-(carboxymethyl)-5-{5-[3-(carboxymethyl)thiophen-2-yl]thiophen-2-yl}thiophen-2-yl]thiophen-2-yl]thiophen-2-yl}thiophen-3-yl)acetic acid] | 5010 nM | + | no | +++ | – | – | –
O=C(O)CCc1ccsc1-c1ccc(-c2sc(-c3ccc(-c4cc(CCC(=O)O)c(-c5ccc(-c6sccc6CCC(=O)O)s5)s4)s3)cc2CCC(=O)O)s1 [Example 62, 3-(2-{5-[3-(2-Carboxyethyl)-5-{5-[4-(2-carboxyethyl)-5-{5-[3-(2-carboxyethyl)thiophen-2-yl]thiophen-2-yl}thiophen-2-yl]thiophen-2-yl}thiophen-2-yl]thiophen-2-yl}thiophen-3-yl)propanoic acid] | 398 nM | ++ | +++ | – | – | – | –
O=C(O)Cc1cc(-c2cccs2)sc1-c1ccc(-c2sc(-c3cccs3)cc2CC(=O)O)s1 [p-HTAA, reference compound] | – | – | – | – | 5.7 | pronounced anti-prion potential | –
O=C(O)Cc1ccsc1-c1ccc(-c2sc(-c3cccc(-c4cc(CC(=O)O)c(-c5ccc(-c6sccc6CC(=O)O)cc5)s4)c3)cc2CC(=O)O)cc1 [Example 39, 2-(5-{3-[4-(Carboxymethyl)-5-{4-[3-(carboxymethyl)thiophen-2-yl]phenyl}thiophen-2-yl]phenyl}-2-{4-[3-(carboxymethyl)thiophen-2-yl]phenyl}thiophen-3-yl)acetic acid] | 794 nM | + | + | no | – | – | –
CS(=O)(=O)c1ccc(-c2ccc(-c3sc(-c4cc(CC(=O)O)c(-c5ccc(-c6ccc(S(C)(=O)=O)cc6)s5)s4)cc3CC(=O)O)s2)cc1 [Example 50, 2-{5-[4-(Carboxymethyl)-5-[5-(4-methanesulfonylphenyl)thiophen-2-yl]thiophen-2-yl]-2-[5-(4-methanesulfonylphenyl)thiophen-2-yl]thiophen-3-yl}acetic acid] | 2510 nM | no | +++ | +++ | – | – | –
O=C(O)Cc1cc(-c2ccc(C(=O)O)cc2)sc1-c1ccc(-c2sc(-c3ccc(C(=O)O)cc3)cc2CC(=O)O)s1 [Example 9, 4-[4-(Carboxymethyl)-5-{5-[3-(carboxymethyl)-5-(4-carboxyphenyl)thiophen-2-yl]thiophen-2-yl}thiophen-2-yl]benzoic acid] | 15800 nM | – | ++ | +++ | – | – | –
O=C(O)Cc1ccccc1-c1cc(CC(=O)O)c(-c2ccc(-c3sc(-c4ccccc4CC(=O)O)cc3CC(=O)O)s2)s1 [Example 47, 2-(2-{5-[3-(Carboxymethyl)-5-[2-(carboxymethyl)phenyl]thiophen-2-yl]thiophen-2-yl}-5-[2-(carboxymethyl)phenyl]thiophen-3-yl)acetic acid] | – | +++ | +++ | +++ | – | – | –
O=C(O)Cc1cc(-c2ccccc2)sc1-c1ccc(-c2sc(-c3ccccc3)cc2CC(=O)O)s1 [Example 21, 2-(2-{5-[3-(Carboxymethyl)-5-phenylthiophen-2-yl]thiophen-2-yl}-5-phenylthiophen-3-yl)acetic acid] | 2510 nM | no | ++ | no | – | – | –
O=C(O)Cc1ccsc1-c1ccc(-c2sc(-c3ccc(-c4cc(CC(=O)O)c(-c5ccc(-c6sccc6CC(=O)O)s5)s4)cc3)cc2CC(=O)O)s1 [Example 33, 2-(2-{5-[3-(Carboxymethyl)-5-{4-[4-(carboxymethyl)-5-{5-[3-(carboxymethyl)thiophen-2-yl]thiophen-2-yl}thiophen-2-yl]phenyl}thiophen-2-yl]thiophen-2-yl}thiophen-3-yl)acetic acid] | 794 nM | no | ++ | no | – | – | –
O=C(O)Cc1cc(-c2ccc(-c3ccc(C(=O)O)s3)s2)sc1-c1ccc(-c2sc(-c3ccc(-c4ccc(C(=O)O)s4)s3)cc2CC(=O)O)s1 [Example 18, 5-{5-[4-(Carboxymethyl)-5-{5-[3-(carboxymethyl)-5-[5-(5-carboxythiophen-2-yl)thiophen-2-yl]thiophen-2-yl]thiophen-2-yl}thiophen-2-yl]thiophen-2-yl}thiophene-2-carboxylic acid] | 1260 nM | ++ | + | no | – | – | –
Nc1c(/N=N/c2ccc(-c3ccc(/N=N/c4cc(S(=O)(=O)O)c5ccccc5c4N)cc3)cc2)cc(S(=O)(=O)O)c2ccccc12 [Congo Red, reference compound] | 1580 nM | – | – | – | – | – | ++
O=C(O)c1ccc(-c2cc(CCO)c(-c3ccc(-c4sc(-c5ccc(C(=O)O)s5)cc4CCO)s3)s2)s1 [Example 5, 5-(5-{5-[5-(5-Carboxythiophen-2-yl)-3-(2-hydroxyethyl)thiophen-2-yl]thiophen-2-yl}-4-(2-hydroxyethyl)thiophen-2-yl)thiophene-2-carboxylic acid] | 3980 nM | no | ++ | + | – | – | –
CS(=O)(=O)c1ccc(-c2cc(CC(=O)O)c(-c3ccc(-c4sc(-c5ccc(S(C)(=O)=O)cc5)cc4CC(=O)O)s3)s2)cc1 [Example 16, 2-(2-{5-[3-(Carboxymethyl)-5-(4-methanesulfonylphenyl)thiophen-2-yl]thiophen-2-yl}-5-(4-methanesulfonylphenyl)thiophen-3-yl)acetic acid] | 5010 nM | – | +++ | +++ | – | – | –
